Source: the supplement of paper PMC10307832

Assays:
Test in all cases: relative viability (nuclei count vs DMSO), 5 days (fraction); higher = more cells survive
[1] = compound: CC(C)CCN1c2nc(Nc3cc(F)c(O)c(F)c3)ncc2N(C)C(=O)C1C [BI-D1870] + Cc1nc(NC(=O)N2CCC[C@H]2C(N)=O)sc1-c1ccnc(C(C)(C)C(F)(F)F)c1 [Alpelisib] (partner 2 µM)
How it was run: (§1)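 Values are medians from duplicate plates. Each reflects relative viability, defined as the nuclei count of treated wells over that of vehicle wells. Lung cancer cell lines in 1536-well plates were pin-tool dosed one day after seeding with one drug alone or with a fixed anchor-drug dose plus five library-drug doses (not always all listed) in √10 steps, then fixed, stained and imaged at 4× after 5 days.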

[2] = compound: O=c1ncccn1[C@@H]1O[C@H](CO)[C@@H](O)[C@H]1O [Zebularine] + N=C(N)NC(=N)NCCc1ccccc1 [Phenformin] (partner 250 µM)
How it was run: as §1

[3] = compound: CC(C)CCN1c2nc(Nc3cc(F)c(O)c(F)c3)ncc2N(C)C(=O)C1C [BI-D1870] + Cc1nc(Nc2ncc(C(=O)Nc3c(C)cccc3Cl)s2)cc(N2CCN(CCO)CC2)n1 [Dasatinib] (partner 0.075 µM)
How it was run: as §1

[4] = compound: O=c1ncccn1[C@@H]1O[C@H](CO)[C@@H](O)[C@H]1O [Zebularine] + COc1cc2c(Oc3ccc(NC(=O)C4(C(=O)Nc5ccc(F)cc5)CC4)cc3F)ccnc2cc1OCCCN1CCOCC1 [Foretinib] (partner 0.25 µM)
How it was run: as §1

Row | Cell Line | relative viability ([1]; first compound 0.04 µM) | relative viability ([1]; first compound 0.1265 µM) | relative viability ([1]; first compound 0.4 µM) | relative viability ([1]; first compound 1.265 µM) | relative viability ([1]; first compound 4 µM) | relative viability ([2]; first compound 1 µM) | relative viability ([2]; first compound 3.162 µM) | relative viability ([2]; first compound 10 µM) | relative viability ([2]; first compound 31.62 µM) | relative viability ([2]; first compound 100 µM) | relative viability ([3]; first compound 0.04 µM) | relative viability ([3]; first compound 0.1265 µM) | relative viability ([3]; first compound 0.4 µM) | relative viability ([3]; first compound 1.265 µM) | relative viability ([3]; first compound 4 µM) | relative viability ([4]; first compound 1 µM) | relative viability ([4]; first compound 3.162 µM) | relative viability ([4]; first compound 10 µM) | relative viability ([4]; first compound 31.62 µM) | relative viability ([4]; first compound 100 µM)
1 | NCI-H23 | 0.779 | 0.508 | 0.614 | 0.78 | 0.664 | 0.847 | 0.821 | 0.423 | 0.75 | 0.77 | 0.923 | 0.741 | 0.692 | 0.588 | 0.579 | 1.09 | 1.1 | 0.658 | 0.893 | 0.854
2 | NCI-H322M | 0.887 | 0.79 | 0.741 | 0.891 | 0.765 | 0.816 | 0.747 | 0.568 | 0.73 | 0.671 | 0.236 | 0.27 | 0.234 | 0.234 | 0.283 | 0.914 | 0.945 | 0.645 | 0.773 | 0.647
3 | NCI-H358 | 0.964 | 0.745 | 0.852 | 0.663 | 0.415 | 0.354 | 0.261 | 0.209 | 0.227 | 0.154 | 0.177 | 0.172 | 0.195 | 0.257 | 0.288 | 0.723 | 0.602 | 0.476 | 0.391 | 0.184
4 | NCI-H441 | 0.915 | 0.675 | 0.955 | 0.572 | 0.434 | 0.803 | 0.73 | 0.366 | 0.309 | 0.396 | 0.763 | 0.544 | 0.575 | 0.651 | 0.671 | 1.72 | 1.03 | 0.684 | 0.361 | 0.258
5 | NCI-H460 | 0.613 | 0.368 | 0.443 | 0.347 | 0.0382 | 0.601 | 0.592 | 0.364 | 0.127 | 0.0588 | 0.594 | 0.377 | 0.528 | 0.507 | 0.242 | 1.08 | 0.948 | 0.689 | 0.463 | 0.0513
6 | NCI-H520 | 0.903 | 0.76 | 0.85 | 0.953 | 0.764 | 0.76 | 0.6 | 0.313 | 0.332 | 0.206 | 0.207 | 0.189 | 0.235 | 0.198 | 0.186 | 0.895 | 0.742 | 0.419 | 0.395 | 0.243
7 | NCI-H596 | 0.456 | 0.487 | 0.43 | 0.511 | 0.512 | 0.844 | 0.817 | 0.579 | 0.776 | 0.807 | 0.633 | 0.475 | 0.597 | 0.684 | 0.564 | 0.75 | 0.926 | 0.559 | 0.891 | 0.602
8 | NCI-H647 | 1.1 | 0.985 | 1.16 | 1.07 | 0.896 | 0.539 | 0.48 | 0.178 | 0.22 | 0.12 | 0.184 | 0.113 | 0.243 | 0.23 | 0.208 | 1.03 | 0.979 | 0.333 | 0.198 | 0.167
9 | NCI-H650 | 1.16 | 0.944 | 1.14 | 0.97 | 0.722 | 0.454 | 0.45 | 0.409 | 0.295 | 0.285 | 0.454 | 0.419 | 0.431 | 0.403 | 0.35 | 1.02 | 0.934 | 0.824 | 0.447 | 0.258
10 | NCI-H661 | 0.516 | 0.692 | 0.427 | 0.599 | 0.65 | 0.279 | 0.269 | 0.28 | 0.275 | 0.264 | 1.04 | 0.867 | 0.874 | 0.898 | 0.708 | 0.989 | 1.04 | 0.991 | 1.18 | 1.02
11 | NCI-H727 | 0.591 | 0.448 | 0.526 | 0.63 | 0.445 | 0.628 |  |  | 0.693 | 0.528 | 0.432 | 0.34 | 0.27 | 0.417 | 0.312 | 0.951 | 0.85 | 0.769 | 1.03 | 0.723
12 | NCI-H838 | 1.04 | 0.883 | 0.923 | 1.17 | 1.04 | 0.695 | 0.668 | 0.549 | 0.509 | 0.285 | 0.342 | 0.244 | 0.314 | 0.274 | 0.243 | 1.08 | 1.03 | 0.705 | 0.698 | 0.322
13 | NCI-H1355 | 0.848 | 0.768 | 0.804 | 0.884 | 0.716 | 0.507 | 0.45 | 0.425 | 0.403 | 0.294 | 0.886 | 0.726 | 0.767 | 0.838 | 0.674 | 1.02 | 0.907 | 0.631 | 0.47 | 0.325
14 | NCI-H1395 | 1.56 | 1.04 | 1.11 | 1.05 | 1.08 | 0.455 | 0.454 | 0.398 | 0.361 | 0.372 | 0.471 | 0.432 | 0.428 | 0.359 | 0.384 | 0.852 | 0.961 | 0.772 | 0.608 | 0.445
15 | NCI-H1437 | 1.1 | 0.964 | 0.911 | 0.993 | 0.754 | 0.333 | 0.311 | 0.229 | 0.328 | 0.376 | 0.46 | 0.343 | 0.413 | 0.394 | 0.285 | 1.33 | 1.29 | 1.04 | 1.21 | 0.653
16 | NCI-H1563 | 0.946 | 0.863 | 0.982 | 0.897 | 0.945 | 0.684 | 0.674 | 0.647 | 0.702 | 0.661 | 0.456 | 0.434 | 0.425 | 0.506 | 0.477 | 0.915 | 0.952 | 0.922 | 0.991 | 0.898
